Measured values as given in patent EP0111112A1, “Granular pesticidal compositions coated with hydrophobic solids with attendant reduced dermal toxicity” (priority 1982, dated 1984).

Tests used:
[1] = Dermal toxicity of pesticidal formulations in male albino rabbits; settings: rabbit, in vivo, topical or ocular, 24 hours contact, observed 14 days
From the text: Five male albino rabbits weighing approximately 2.2 to 3.5 kilograms are selected for each dosage level. The hair is shaved from the entire trunk.
The following materials are used in dermal toxicity tests: • (a.) Saran tubing or "vinylite" film VU 1900, 30.5 cm (12") wide, 0.04 millimeter in thickness, and long enough to fit around the rabbit; (b.) Felt cloth bandages measuring approximately 22.9 x 45.7 cm (9" x 18"); (c.) pieces of 3.8 cm (1.5") adhesive tape approximately 35.6 cm (14") long.
Granular material to be evaluated is placed in the center of the plastic film and is moistened with water. The rabbits' underside is then moistened with water, and the animals are placed, belly down, on. the material. The plastic is then brought up and around the animal and secured at each end with strips of adhesive tape. The felt cloth is then placed under the belly and brought up and around the animal and secured to the body with the remaining two strips of adhesive tape. The "cuff" is removed from the test animals 24 hours after dosing, and any remaining material is brushed away. If the test material cannot be removed, the animal is fitted with a fiber collar which prevents the animal from licking the treatment area. […]
The dermal LD50 values (mg/kg/ body weight) are. calculated for experimental data for the compositions evaluated. […]

[2] = Dermal toxicity of pesticidal formulations in male rats; settings: rat, in vivo, topical or ocular, male Wistar rats, 24 hours contact, observed 14 days
Method: Five male Wistar rats weighing approximately 209 to 277 g are selected for each dosage level. The hair is shaved from the ventral surface of the abdomen.
Granular material for evaluation is mixed with an equal weight of water on an aluminum foil backed with a plastic adhesive strapping. This preparation is then applied to the shaven ventral surface of the animal and fastened in place with adhesive strapping. After a contact time of 24 hours, the strapping is removed and the skin is washed with soap and water. The animals are then observed for 14 days for skin irritation or mortality. After this observation period, the animals are sacrificed and weighed.
Dermal LD50 values (mg/kg body weight) are calculated from experimental data for the compositions evaluated. The LD50 values obtained are averaged. […] Compositions A and B of Table III are as defined in Table I.

CCOP(=S)(OCC)SCSC(C)(C)C [O,O-diethyl S-{[(1,1-dimethylethyl)-thio]methyl}phosphorodithioate]
LD50 at 336 h [1]: 1 to 2 mg/kg | LD50 at 336 h [2]: 1 to 2 mg/kg
